Measurements: article PMC4492732 (Pharmacology Research & Perspectives, 2015)

Assays:
Incubation of = format: in vitro ADME, Wistar rat; conditions: 0.1, 1 and 10 μmol/L; 1 mg/mL S9, NADPH; up to 120 min; data not shown
[1] = rat, ref Leung and Baillie ([1986]), cited from earlier work; for increased spontaneous locomotor activity: postanesthetic recovery phase
[2] = after i.v. (R,S)-Ket; ref Cohen et al. [1973]; cited from earlier work
[3] = organic phase relative to aqueous phase; ref Leung and Baillie ([1986]); cited from earlier work
[4] = biological target: α7-nicotinic acetylcholine receptor; conditions: ref Moaddel et al. [2013]; cited from earlier work
[5] = Plasma concentrations of Ket and; format: in vivo, Wistar rat; conditions: after i.v. 20 mg/kg (R)-Ket, n = 3, ±SD
[6] = Brain tissue concentrations of Ket and; conditions: for Brain tissue concentration 10 min / Brain tissue concentration 20 min / Brain tissue concentration 60 min / ratio of brain tissue concentration: plasma concentration 10 min / ratio of brain tissue concentration: plasma concentration 20 min / ratio of brain tissue concentration: plasma concentration 60 min: after i.v. 20 mg/kg (R)-Ket; for Brain tissue concentration 10 min / Brain tissue concentration 20 min / Brain tissue concentration 60 min: n = 3, ±SD
[7] = Pharmacokinetic parameters for; format: in vivo, Wistar rat; conditions: metabolite after single i.v. 40 mg/kg (R,S)-Ket

| SMILES | increased spontaneous locomotor activity [1] | duration of anesthesia [1] | Plasma concentration 10 min [5] [ng/mL] | Plasma concentration 20 min [5] [ng/mL] | Plasma concentration 60 min [5] [ng/mL] | Brain tissue concentration 10 min [6] | Brain tissue concentration 20 min [6] [ng/g tissue] | Brain tissue concentration 60 min [6] [ng/g tissue] | other results |
| --- | --- | --- | --- | --- | --- | --- | --- | --- | --- |
| CNC1(c2ccccc2Cl)CCCCC1=O (racemic) [(R,S)-Ket, ketamine, reference compound] | 25 min | 7 min | – | – | – | – | – | – | Ket metabolites formed in incubates (Incubation of): did not contain any known Ket metabolites; time to peak brain tissue concentrations [2]: less than 1 min; relative hydrophobicity from partition coefficients [3]: slightly more hydrophobic |
| NC1(c2ccccc2Cl)CCC=CC1=O (racemic) [(R,S)-DHNK, (R,S)-dehydronorketamine] | – | – | – | – | – | – | – | – | IC50 [4]: < 100 nM |
| N[C@@]1(c2ccccc2Cl)CCC[C@@H](O)C1=O [(2R,6R)-HNK, (2R,6R)-hydroxynorketamine] | – | – | 345 ± 115 | 316 ± 58 | 200 ± 24 | 274 ± 47 ng/g tissue | 191 ± 50 | 156 ± 34 | – |
| N[C@@]1(c2ccccc2Cl)CCC[C@H](O)C1=O [(2R,6S)-HNK] | – | – | 222 ± 29 | 96 ± 6 | 35 ± 6 | 141 ± 20 ng/g tissue | 78 ± 37 | 48 ± 28 | ratio of brain tissue concentration: plasma concentration 10 min [6]: (0.6); ratio of brain tissue concentration: plasma concentration 20 min [6]: (0.8); ratio of brain tissue concentration: plasma concentration 60 min [6]: (1.4); average ratio of brain tissue concentration to plasma concentration ([6]; after i.v. (S)-Ket or (R)-Ket, respectively, over the first 20 min post administration): ~1 |
| NC1(c2ccccc2Cl)CCCCC1=O (racemic) [(R,S)-norKet, (R,S)-norketamine] | 7 min | 3 min | – | – | – | – | – | – | – |
| CN[C@@]1(c2ccccc2Cl)CCCCC1=O [(R)-Ket, (R)-ketamine, reference compound] | – | – | 3430 ± 400 | 1420 ± 103 | 498 ± 116 | 16,365 ± 1931 ng/g tissue | 8715 ± 4433 | 5224 ± 3391 | ratio of brain tissue concentration: plasma concentration 10 min [6]: (4.8); ratio of brain tissue concentration: plasma concentration 20 min [6]: (6.1); ratio of brain tissue concentration: plasma concentration 60 min [6]: (10.5) |
| N[C@@]1(c2ccccc2Cl)CCC[C@@H](O)C1=O [(2S,6S;2R,6R)-HNK, (2S,6S;2R,6R)-hydroxynorketamine] | no effect | no effect | – | – | – | – | – | – | t1/2 [7]: 9.5 ± 5.4 h; IC50 [4]: < 100 nM; relative hydrophobicity from partition coefficients [3]: significantly less lipophilic |
